Earlier results as cited in US20140004186A1, “COMPOSITIONS COMPRISING A FATTY ACID OIL MIXTURE COMPRISING EPA AND DHA IN FREE ACID FORM, A SURFACTANT, AND A STATIN” (Pronova Biopharma Norge AS, priority 2010, published 2014).

Key:
[1] = Table 7, other surfactants

HBL Value [1] | oral bioavailability | SMILES
3.4 |  | CC(O)CO.CCCCCCCCCCCCCCCCCC(=O)O [Propylene glycol monostearate]
 | 18% | CC[C@H](C)C(=O)O[C@H]1C[C@H](O)C=C2C=C[C@H](C)[C@H](CC[C@@H](O)C[C@@H](O)CC(=O)O)[C@H]21 [pravastatin]
 | 20% | CC(C)c1nc(N(C)S(C)(=O)=O)nc(-c2ccc(F)cc2)c1/C=C/[C@@H](O)C[C@@H](O)CC(=O)O [rosuvastatin]
